In patent US11046716B2, “Beta-lactamase inhibitors” (priority 2015, dated 2021):

Key:
SHV-5 = target: T1, SHV-5 (Klebsiella pneumoniae, UniProt P0A3M1); assay: β-lactamase enzyme inhibition assay, SHV-5 (cefotaxime substrate); type: biochemical
T1 construct: made in house; host or cells: E. coli BL21(DE3)
Procedure, shortened: (§1)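 Compounds are mixed with purified, untagged recombinant β-lactamase and held 15 min at 37 °C. Substrate is then added: nitrocefin (100 μM final) for OXA-1, imipenem for KPC-2, cefotaxime for SHV-5. Absorbance is followed immediately, and percent inhibition per concentration gives the IC50.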

KPC-2 = target: T2, KPC-2 (Klebsiella pneumoniae, UniProt Q9F663); assay: β-lactamase enzyme inhibition assay, KPC-2 (imipenem substrate); type: biochemical; conditions: Class A; imipenem substrate, 300 nm; read-out: KPC-2
T2 construct: made in house; host or cells: E. coli BL21(DE3)
Procedure, shortened: as §1

VIM-2 = target: T3, VIM-2 (Escherichia coli, UniProt Q5U7L7); assay: β-lactamase enzyme inhibition assay, VIM-2 (nitrocefin substrate); type: biochemical; conditions: Class B; nitrocefin substrate, 486 nm; read-out: VIM-2
T3 construct: made in house; host or cells: E. coli BL21(DE3)
Procedure, shortened: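 Nitrocefin hydrolysis (100 μM final, A486 read for 10 min) by purified VIM-2 after a 15-min, 37° C enzyme–inhibitor preincubation. IC50 is the concentration halving initial hydrolysis rate, derived from percent inhibition against no-inhibitor wells.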

AmpC = target: T4, AmpC (Enterobacter cloacae, UniProt P05364); assay: β-lactamase enzyme inhibition assay, p99 AmpC (nitrocefin substrate); type: biochemical
T4 construct: made in house; host or cells: E. coli BL21(DE3)
Procedure, shortened: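 Compounds are mixed with purified, untagged recombinant β-lactamase and held 15 min at 37 °C. Substrate is then added. Absorbance is followed immediately, and percent inhibition per concentration gives the IC50.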

OXA-48 = OXA-48 (UniProt Q6XEC0); assay: β-lactamase enzyme inhibition assay, Class D oxacillinase; type: biochemical; conditions: read-out: OXA-48
[1] = system: E. coli expressing the Class A Extended Spectrum Beta-Lactamase (ESBL) CTX-M-15; assay: Broth microdilution MIC assay with ceftazidime, E. coli CTX-M-15; type: cell-based; conditions: Fixed CAZ (ceftazidime) 4 μg/mL; E. coli ESBL4 CTX-M-15
Procedure, shortened: (§2)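 CLSI broth microdilution in cation-adjusted Mueller Hinton broth measured growth of β-lactamase-expressing strains, grown 3-5 h beforehand. The β-lactam partner was held at 4 μg/ml final while test compound was titrated 2-fold from 16 to 0.125 μg/mL final. After 16-20 h at 37° C, the compound MIC was determined by eye.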

[2] = system: E. cloacae expressing the Class C P99; assay: Broth microdilution MIC assay with ceftazidime, E. cloacae P99; type: cell-based; conditions: Fixed CAZ (ceftazidime) 4 μg/mL; E. cl. 144200 p99 AmpC
Procedure, shortened: as §2

[3] = system: K. pneumoniae expressing the Class A carbapenemase KPC-2; assay: Broth microdilution MIC assay with meropenem, K. pneumoniae KPC-2; type: cell-based; conditions: Fixed Mero (meropenem) 4 μg/mL; K. p. 156319 KPC-3
Procedure, shortened: as §2

[4] = system: P. aeruginosa expressing the Class B carbapenemase VIM-2; assay: Broth microdilution MIC assay with meropenem, P. aeruginosa VIM-2; type: cell-based; conditions: Fixed Mero (meropenem) 4 μg/mL; P. aerug. 2775 VIM-2
Procedure, shortened: as §2

[5] = system: K. pneumoniae expressing the class A carbapenemase KPC-2 and the class B carbapenemase VIM-4; assay: Broth microdilution MIC assay with meropenem, K. pneumoniae KPC-2 and VIM-4; type: cell-based; conditions: Fixed Mero (meropenem) 4 μg/mL; K. p. A-1797 KPC-2 VIM-4
Procedure, shortened: as §2

[6] = system: K. pneumoniae producing the Class D carbapenemase OXA-48; assay: Broth microdilution MIC assay with meropenem, K. pneumoniae OXA-48; type: cell-based; conditions: Fixed Mero (meropenem) 4 μg/mL; K. p. 11978 OXA-48
Procedure, shortened: as §2

T4 sequence (P05364 21-381): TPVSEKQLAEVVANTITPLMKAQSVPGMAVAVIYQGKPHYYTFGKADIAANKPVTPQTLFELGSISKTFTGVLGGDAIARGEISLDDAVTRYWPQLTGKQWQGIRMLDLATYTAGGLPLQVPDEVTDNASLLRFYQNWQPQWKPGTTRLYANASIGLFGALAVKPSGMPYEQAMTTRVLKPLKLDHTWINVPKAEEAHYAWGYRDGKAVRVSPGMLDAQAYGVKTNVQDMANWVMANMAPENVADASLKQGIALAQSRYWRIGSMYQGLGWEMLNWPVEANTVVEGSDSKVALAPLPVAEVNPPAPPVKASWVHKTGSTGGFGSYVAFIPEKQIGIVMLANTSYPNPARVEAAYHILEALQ
T1 sequence (P0A3M1 22-286): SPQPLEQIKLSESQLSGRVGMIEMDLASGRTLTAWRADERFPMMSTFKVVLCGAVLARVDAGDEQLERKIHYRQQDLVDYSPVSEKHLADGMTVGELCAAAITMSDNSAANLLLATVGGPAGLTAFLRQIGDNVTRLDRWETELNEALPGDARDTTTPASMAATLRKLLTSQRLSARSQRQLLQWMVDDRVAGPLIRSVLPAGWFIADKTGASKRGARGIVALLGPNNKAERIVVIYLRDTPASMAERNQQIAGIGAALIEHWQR
T2 sequence (Q9F663 25-293, looked up): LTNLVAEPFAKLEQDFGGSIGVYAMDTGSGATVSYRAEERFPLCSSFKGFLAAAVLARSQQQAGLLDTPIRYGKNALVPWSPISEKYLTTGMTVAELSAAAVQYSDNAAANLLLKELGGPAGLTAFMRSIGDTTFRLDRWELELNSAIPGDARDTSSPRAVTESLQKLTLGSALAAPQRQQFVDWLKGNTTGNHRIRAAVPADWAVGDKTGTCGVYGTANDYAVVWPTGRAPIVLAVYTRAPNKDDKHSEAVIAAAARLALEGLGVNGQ

SMILES | IC50 (SHV-5) [nM] | IC50 (KPC-2) [nM] | IC50 (VIM-2) [nM] | IC50 (AmpC) [nM] | IC50 (OXA-48) [nM] | MIC (μg/mL) of Exemplary Compounds in presence of fixed β-lactams: E. coli ESBL4 CTX-M-15 [1] | MIC (μg/mL) of Exemplary Compounds in presence of fixed β-lactams: E. cl. 144200 p99 AmpC [2] | MIC (μg/mL) of Exemplary Compounds in presence of fixed β-lactams: K. p. 156319 KPC-3 [3] | MIC (μg/mL) of Exemplary Compounds in presence of fixed β-lactams: P. aerug. 2775 VIM-2 [4] | MIC (μg/mL) of Exemplary Compounds in presence of fixed β-lactams: K. p. A-1797 KPC-2 VIM-4 [5] | MIC (μg/mL) of Exemplary Compounds in presence of fixed β-lactams: K. p. 11978 OXA-48 [6]
O=C(Cn1cc(C(=O)N[C@H]2CCNC2)nn1)N[C@H]1Cc2cccc(C(=O)O)c2OB1O [Example 81, (R)-2-hydroxy-3-(2-(4-(((S)-pyrrolidin-3-yl)carbamoyl)-1H-1,2,3-triazol-1-yl)acetamido)-3,4-dihydro-2H-benzo[e][1,2]oxaborinine-8-carboxylic acid] | < 100 | < 100 | < 100 | < 100 | 100 to 1000 | C (C represents an MIC of <1 μg/mL) | C (C represents an MIC of <1 μg/mL) | C (C represents an MIC of <1 μg/mL) | C (C represents an MIC of <1 μg/mL) | C (C represents an MIC of <1 μg/mL) | C (C represents an MIC of <1 μg/mL)
NC(=O)c1ncn(CC(=O)N[C@H]2Cc3cccc(C(=O)O)c3OB2O)n1 [Example 35, (R)-3-(2-(3-carbamoyl-1H-1,2,4-triazol-1-yl)acetamido)-2-hydroxy-3,4-dihydro-2H-benzo[e][1,2]oxaborinine-8-carboxylic acid] | < 100 | < 100 | 1000 to 10000 | < 100 | 1000 to 10000 | C (C represents an MIC of <1 μg/mL) | C (C represents an MIC of <1 μg/mL) | B (B represents an MIC between 1 and 16 μg/mL inclusive) | B (B represents an MIC between 1 and 16 μg/mL inclusive) | A (A represents an MIC>16 μg/mL) | B (B represents an MIC between 1 and 16 μg/mL inclusive)
NCCn1cncc1C(=O)N[C@H]1Cc2cccc(C(=O)O)c2OB1O [Example 73, (R)-3-(1-(2-aminoethyl)-1H-imidazole-5-carboxamido)-2-hydroxy-3,4-dihydro-2H-benzo[e][1,2]oxaborinine-8-carboxylic acid] | < 100 | < 100 | 100 to 1000 | < 100 | 100 to 1000 | C (C represents an MIC of <1 μg/mL) | C (C represents an MIC of <1 μg/mL) | B (B represents an MIC between 1 and 16 μg/mL inclusive) | C (C represents an MIC of <1 μg/mL) | B (B represents an MIC between 1 and 16 μg/mL inclusive) | B (B represents an MIC between 1 and 16 μg/mL inclusive)
NCc1cc(-c2cn(CC(=O)N[C@H]3Cc4cccc(C(=O)O)c4OB3O)nn2)cs1 [Example 55, (R)-3-(2-(4-(5-(aminomethyl)thiophen-3-yl)-1H-1,2,3-triazol-1-yl)acetamido)-2-hydroxy-3,4-dihydro-2H-benzo[e][1,2]oxaborinine-8-carboxylic acid] | < 100 | < 100 | 100 to 1000 | < 100 | 100 to 1000 | C (C represents an MIC of <1 μg/mL) | C (C represents an MIC of <1 μg/mL) | C (C represents an MIC of <1 μg/mL) | B (B represents an MIC between 1 and 16 μg/mL inclusive) | B (B represents an MIC between 1 and 16 μg/mL inclusive) | B (B represents an MIC between 1 and 16 μg/mL inclusive)
CSCC[C@@H](C(=O)N[C@H]1Cc2cccc(C(=O)O)c2OB1O)n1cc(CN)nn1 [Example 115, (R)-3-((S)-2-(4-(aminomethyl)-1H-1,2,3-triazol-1-yl)-4-(methylthio)butanamido)-2-hydroxy-3,4-dihydro-2H-benzo[e][1,2]oxaborinine-8-carboxylic acid] | 100 to 1000 | 100 to 1000 | 100 to 1000 | < 100 | 1000 to 10000 | C (C represents an MIC of <1 μg/mL) | C (C represents an MIC of <1 μg/mL) | B (B represents an MIC between 1 and 16 μg/mL inclusive) | B (B represents an MIC between 1 and 16 μg/mL inclusive) | B (B represents an MIC between 1 and 16 μg/mL inclusive) | B (B represents an MIC between 1 and 16 μg/mL inclusive)
Nc1nc(=O)c(Cc2cn(CC(=O)N[C@H]3Cc4cccc(C(=O)O)c4OB3O)nn2)c(N)[nH]1 [Example 64, (R)-3-(2-(4-((2,6-diamino-4-oxo-1,4-dihydropyrimidin-5-yl)methyl)-1H-1,2,3-triazol-1-yl)acetamido)-2-hydroxy-3,4-dihydro-2H-benzo[e][1,2]oxaborinine-8-carboxylic acid] | < 100 | < 100 | 100 to 1000 | < 100 | < 100 | C (C represents an MIC of <1 μg/mL) | C (C represents an MIC of <1 μg/mL) | C (C represents an MIC of <1 μg/mL) | B (B represents an MIC between 1 and 16 μg/mL inclusive) | B (B represents an MIC between 1 and 16 μg/mL inclusive) | B (B represents an MIC between 1 and 16 μg/mL inclusive)
CNC(=O)c1cn(CC(=O)N[C@H]2Cc3cccc(C(=O)O)c3OB2O)nn1 [Example 79, (R)-2-hydroxy-3-(2-(4-(methylcarbamoyl)-1H-1,2,3-triazol-1-yl)acetamido)-3,4-dihydro-2H-benzo[e][1,2]oxaborinine-8-carboxylic acid] | < 100 | < 100 | 100 to 1000 | < 100 | 100 to 1000 | C (C represents an MIC of <1 μg/mL) | C (C represents an MIC of <1 μg/mL) | C (C represents an MIC of <1 μg/mL) | C (C represents an MIC of <1 μg/mL) | B (B represents an MIC between 1 and 16 μg/mL inclusive) | C (C represents an MIC of <1 μg/mL)
